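Assay format: 96-well plates, 48-hour exposure. Abbreviation: GI50, concentration required for 50% inhibition of growth.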 The source made the active and inactive calls. Rule as the data show it: active = GI50 up to about 1.1 µM and inactive = higher.
Columns and labels:
Assay in all cases: NCI anticancer screen, dose series, 48 h
COLO 205 = tested on: COLO 205
NCI-H226 = tested on: NCI-H226
NCI-H522 = tested on: NCI-H522
XF498 = tested on: XF498
U-251 = tested on: U-251
NCI-H460 = tested on: NCI-H460
EKVX = tested on: EKVX
OVCAR-5 = tested on: OVCAR-5
HOP-18 = tested on: HOP-18
LOX IMVI = tested on: LOX IMVI
KM-20L2 = tested on: KM-20L2
CCRF-CEM = tested on: CCRF-CEM
SNB-78 = tested on: SNB-78
SK-MEL-2 = tested on: SK-MEL-2
SF-295 = tested on: SF-295
SR = tested on: SR
TK-10 = tested on: TK-10
M14 = tested on: M14

Measured: GI50

COc1ccc(C2COc3cc(OC(C)=O)c(OC(C)=O)cc3C2)cc1 (stereo unspecified)
inactive: COLO 205 20 µM | NCI-H226 24.3 µM | NCI-H522 1.97 µM | XF498 8.49 µM | U-251 6.49 µM | NCI-H460 13.9 µM | EKVX 27.2 µM | OVCAR-5 27.1 µM | HOP-18 2.78 µM | LOX IMVI 16.5 µM | KM-20L2 31.4 µM | CCRF-CEM 3.09 µM | SNB-78 26.1 µM | SK-MEL-2 31.7 µM | SF-295 14.1 µM

C/C(=N/NS(=O)(=O)c1c(C)cc(C)cc1C)c1cccc[n+]1[O-]
inactive: NCI-H522 83.4 µM | XF498 > 100 µM | U-251 > 100 µM | NCI-H460 > 100 µM | EKVX > 100 µM | OVCAR-5 > 100 µM | HOP-18 > 100 µM | SR > 100 µM | TK-10 > 100 µM | KM-20L2 > 100 µM | M14 > 100 µM | CCRF-CEM > 100 µM | SNB-78 > 100 µM | SF-295 > 100 µM

CCCCN(C)/N=N/c1[nH]cnc1C(N)=O
inactive: COLO 205 > 100 µM | NCI-H226 > 100 µM | NCI-H522 > 100 µM | XF498 32.4 µM | U-251 > 100 µM | NCI-H460 > 100 µM | EKVX > 100 µM | OVCAR-5 > 85.1 µM | HOP-18 > 100 µM | LOX IMVI 36.7 µM | KM-20L2 > 50.2 µM | CCRF-CEM 52.4 µM | SNB-78 > 100 µM | SK-MEL-2 44.6 µM | SF-295 > 94.2 µM

CN1COCN/C1=N/C#N
inactive: COLO 205 > 100 µM | NCI-H226 > 100 µM | NCI-H522 > 100 µM | XF498 > 100 µM | NCI-H460 > 100 µM | EKVX > 100 µM | OVCAR-5 > 100 µM | HOP-18 > 100 µM | LOX IMVI > 100 µM | KM-20L2 > 100 µM | M14 > 100 µM | CCRF-CEM > 100 µM | SNB-78 > 100 µM | SK-MEL-2 > 100 µM | SF-295 > 100 µM

COc1ccccc1OCC(COC(=O)Nc1ccccc1)OC(=O)Nc1ccccc1 (stereo unspecified)
inactive: COLO 205 94.2 µM | NCI-H226 36.2 µM | NCI-H522 49.4 µM | XF498 60.4 µM | U-251 41.4 µM | NCI-H460 48.5 µM | EKVX > 100 µM | OVCAR-5 > 100 µM | HOP-18 59.3 µM | LOX IMVI 25.9 µM | TK-10 > 100 µM | KM-20L2 > 100 µM | M14 91.8 µM | CCRF-CEM > 100 µM | SNB-78 43.3 µM | SK-MEL-2 23.1 µM | SF-295 39.1 µM

Reference: ChEMBL document CHEMBL1201862, “PubChem BioAssay data set” (2004)
